Assay results from publication PMC10287695, “Non-covalent inhibitors of thioredoxin glutathione reductase with schistosomicidal activity in vivo” (Nature Communications, 2023).
Where “and” joins values, the source holds several entries; their conditions need not be identical. Identical values can stand only once. Like-named read-outs stand apart in the source and are kept apart here.

What was measured:
[1] = Pharmacokinetics, intraperitoneal administration; format: in vivo, Swiss Webster mice; conditions: for Plasma concentration, single animal / concentration at 0 h / concentration at 0.5 h / concentration at 1 h / concentration at 2 h: IP; for Plasma concentration, single animal / concentration at 0 h / concentration at 0.5 h / concentration at 1 h / concentration at 2 h / concentration at 30 min / concentration at 60 min / concentration at 120 min / plasma concentration: 100 mg/kg; for concentration at 0 h / concentration at 0.5 h / concentration at 1 h / concentration at 2 h / concentration at 30 min / concentration at 60 min / concentration at 120 min / Cmax / half-life: male, Swiss Webster, mouse, plasma, ip; for concentration at 30 min / concentration at 60 min / concentration at 120 min / Cmax / half-life / overt toxicity / plasma concentration: mice; for Cmax: at 30 min; for half-life: estimated from the time points available
Method: All the mice were weighed and dosed intraperitoneally accordingly at 100 mg/kg body weight with freshly prepared 1 or 2.
Blood was collected by submandibular puncture into 1 mL Eppendorf tubes, the plasma was separated and stored in −80 °C until used. A 25 µl of mouse plasma was transferred into 1.5 ml centrifuge tube which was spiked with 2.5 µl of internal standard (IS) working standard solution […] to get final IS contraction of 250 ng/ml and the solution was vortexed. An aliquot of 75 µl of methanol/0.15 formic acid was added and gently vortexed for 2 min. The samples then centrifuged for 20 min at 4 °C and 15000 × g. A clear supernatant (50 µl) with added 50 µl mobile phase (reconstitution solution) from each extraction was then transferred into a 250 µl autosampler vial. A 3 µl aliquot of each sample was injected for LC-MSMS analysis.
The total run time of 2 min with an injection volume of 3 μl at column temperature 40 °C were efficient to achieve accepted results.
A Shimadzu LC20AD, Ultra Performance Liquid Chromatography (UPLC) system (Shimadzu Corporation, Kyoto, Japan) equipped with Shimadzu 8040 triple quadrupole (QqQ) mass analyzer (Shimadzu Corporation, Kyoto, Japan) with an electrospray ionization source (ESI) operated in the positive charge mode for the quantification of 1 and 2.

[2] = Pharmacokinetics, oral gavage; conditions: for plasma concentration, individual animals (Animal 1, Animal 2) / plasma concentration: listed as 1 (8VP101); for plasma concentration, individual animals (Animal 1, Animal 2) / concentration at 30 min / concentration at 60 min / concentration at 120 min / concentration at 0.5 h / concentration at 1 h / concentration at 2 h / plasma concentration: 200 mg/kg; for concentration at 30 min / concentration at 60 min / concentration at 120 min / concentration at 0.5 h / concentration at 1 h / concentration at 2 h: female, Swiss Webster, mouse, plasma, po
Method: Tween 80 and saline were then added to the DMSO solution in that order. Final solution was 10% DMSO:10% Tween 80:80% saline.
Swiss Webster female mice were purchased from Charles River Laboratories (Wilmington, MA, USA). […] All the mice were weighed and gavaged orally at 200 mg/kg body weight with freshly prepared 2. Blood was collected by submandibular puncture at 0, 0.25, 0.5, 1, and 2 h.
Samples were deproteinized with 150 µl of internal standard solution. This mixture was vortexed to mix properly and centrifuged at 13000 × g for 30 min. 160 µl of the supernatant was transferred to another set of tubes and dried using a nitrogen evaporator. Samples were reconstituted in 100 µl of methanol, vortexed and centrifuged at 13000 × g for 20 min. 30 µl of supernatant was transferred to autosampler vials.
Experiments were carried out on ThermoFisher Scientific Vanquish high-performance liquid chromatography connected to ThermoFisher Scientific TSQ Quantis – triple quadrupole mass spectrometer. The analyte molecules were separated on Phenomenex kinetex C18 column 100 Å (2.6 μm, 50 × 3 mm) with the mobile phase composed of Water/0.1% formic acid (A) and Acetonitrile (B) at the flow rate of 0.5 ml/min with the column temperature maintained at 40 °C and the sample of injection was 5 µl.
Quantification was performed using electrospray in the positive mode with the spray voltage of 3500 V. Sheath gas (Arb) 20, Auxiliary gas (Arb) 8 and Sweep gas (Arb) 5.7.

[3] = 0 Hour, read-out: Plasma concentration, Average
[4] = 0 Hour, read-out: Plasma concentration, single animal
[5] = 0.5 Hour, read-out: Plasma concentration, Average
[6] = 0.5 Hour, read-out: Plasma concentration, single animal
[7] = 1 Hour, read-out: Plasma concentration, Average
[8] = 1 Hour, read-out: Plasma concentration, single animal
[9] = 2 Hour, read-out: Plasma concentration, Average
[10] = 2 Hour, read-out: Plasma concentration, single animal

Cc1oc(-c2ccc3c(c2)OCO3)nc1CN[C@@H]1C[C@@H]2C[C@H]([C@H]1C)C2(C)C [Compound 1]
Plasma concentration, single animal ([1]; 0 Hour, listed as 1 (8VP70)): 0.000 uM (2×) and 0.000 ug/mL (2×)
Plasma concentration, single animal ([1]; 0.5 Hour, listed as 1 (8VP70)): 4.093 uM and 4.069 uM and 1.508 ug/mL and 1.499 ug/mL
Plasma concentration, single animal ([1]; 1 Hour, listed as 1 (8VP70)): 3.040 uM and 3.641 uM and 1.120 ug/mL and 1.342 ug/mL
Plasma concentration, single animal ([1]; 2 Hour, listed as 1 (8VP70)): 2.409 uM and 2.589 uM and 0.888 ug/mL and 0.954 ug/mL
concentration at 0 h [1, 3]: 0 nM and 0 ng/mL
concentration at 0 h [1, 4]: 0 nM and 0 ng/mL
concentration at 0.5 h [1, 5]: 4.11 µM and 1510 ng/mL
concentration at 0.5 h [1, 6]: 4.16 µM and 1530 ng/mL
concentration at 1 h [1, 7]: 3.28 µM and 1210 ng/mL
concentration at 1 h [1, 8]: 3.16 µM and 1160 ng/mL
concentration at 2 h [1, 9]: 2.35 µM and 865 ng/mL
concentration at 2 h [1, 10]: 2.05 µM and 754 ng/mL
concentration at 30 min ([1]; 100 mg/kg i.p., 30 min): 4.11 ± 0.047 µM
concentration at 60 min ([1]; 100 mg/kg i.p., 60 min): 3.28 ± 0.318 µM
concentration at 120 min ([1]; 100 mg/kg i.p., 120 min): 2.35 ± 0.277 µM
concentration at 30 min ([1]; intraperitoneal, 30 min): 1510 ± 17 ng/mL
concentration at 60 min ([1]; intraperitoneal, 60 min): 1210 ± 117 ng/mL
concentration at 120 min ([1]; intraperitoneal, 120 min): 865 ± 102 ng/mL
Cmax ([1]; 100 mg/kg i.p.): 4.1 µM
half-life ([1]; 100 mg/kg i.p.): ~1.5 h
overt toxicity ([1]; 100 mg/kg i.p.): no overt toxicity
plasma concentration ([1]; 100 mg/kg i.p., 30 min): 4.1 µM
plasma concentration ([1]; 100 mg/kg i.p., 60 min): 3.3 µM
plasma concentration ([1]; 100 mg/kg i.p., 120 min): 2.4 µM

CCc1ccccc1-c1nc(CN[C@@H]2C[C@@H]3C[C@H]([C@H]2C)C3(C)C)c(C)o1 [Compound 2]
plasma concentration, individual animals (Animal 1, Animal 2) ([2]; PO 200 mg/kg, 0.5 Hour): 0.255 ug/mL and 0.704 uM
plasma concentration, individual animals (Animal 1, Animal 2) ([2]; PO 200 mg/kg, 1 Hour): 0.273 ug/mL and 0.767 uM
plasma concentration, individual animals (Animal 1, Animal 2) ([2]; PO 200 mg/kg, 2 Hour): 0.135 ug/mL and 0.409 uM
concentration at 30 min ([2]; Plasma concentration, mice, oral gavage, 30 min): 714 nM and 252 ng/mL
concentration at 60 min ([2]; Plasma concentration, mice, oral gavage, 60 min): 771 nM and 272 ng/mL
concentration at 120 min ([2]; Plasma concentration, mice, oral gavage, 120 min): 396 nM and 140 ng/mL
concentration at 0.5 h ([2]; plasma concentration, Average, PO 200 mg/kg, 0.5 Hour): 252 ng/mL
concentration at 1 h ([2]; plasma concentration, Average, PO 200 mg/kg, 1 Hour): 272 ng/mL
concentration at 2 h ([2]; plasma concentration, Average, PO 200 mg/kg, 2 Hour): 140 ng/mL
concentration at 0.5 h ([2]; plasma concentration, individual animals (Animal 1, Animal 2), PO 200 mg/kg, 0.5 Hour): 724 nM and 248 ng/mL
concentration at 1 h ([2]; plasma concentration, individual animals (Animal 1, Animal 2), PO 200 mg/kg, 1 Hour): 774 nM and 270 ng/mL
concentration at 2 h ([2]; plasma concentration, individual animals (Animal 1, Animal 2), PO 200 mg/kg, 2 Hour): 383 nM and 144 ng/mL
concentration at 30 min ([2]; plasma concentration, mice, 200 mg/kg p.o., 30 min): 0.71 µM
concentration at 60 min ([2]; plasma concentration, mice, 200 mg/kg p.o., 60 min): 0.77 µM
concentration at 120 min ([2]; plasma concentration, mice, 200 mg/kg p.o., 120 min): 0.4 µM
plasma concentration ([2]; mice, 200 mg/kg p.o., 30 min): 0.714 µM
plasma concentration ([2]; mice, 200 mg/kg p.o., 60 min): 0.771 µM
plasma concentration ([2]; mice, 200 mg/kg p.o., 120 min): 0.396 µM
maximum plasma concentration ([2]; mice, PO 200 mg/kg): 0.77 µM
Plasma concentration, single animal ([1]; 0 Hour, listed as 2 (8VP101)): 0.000 uM (2×) and 0.000 ug/mL (2×)
Plasma concentration, single animal ([1]; 0.5 Hour, listed as 2 (8VP101)): 4.991 uM and 5.302 uM and 1.758 ug/mL and 1.868 ug/mL
Plasma concentration, single animal ([1]; 1 Hour, listed as 2 (8VP101)): 4.630 uM and 3.814 uM and 1.631 ug/mL and 1.343 ug/mL
Plasma concentration, single animal ([1]; 2 Hour, listed as 2 (8VP101)): 3.386 uM and 3.401 uM and 1.193 ug/mL and 1.198 ug/mL
concentration at 0 h [1, 3]: 0 nM and 0 ng/mL
concentration at 0 h [1, 4]: 0 nM and 0 ng/mL
concentration at 0.5 h [1, 5]: 4.8 µM and 1690 ng/mL
concentration at 0.5 h [1, 6]: 4.12 µM and 1450 ng/mL
concentration at 1 h [1, 7]: 3.91 µM and 1520 ng/mL
concentration at 1 h [1, 8]: 3.29 µM and 1600 ng/mL
concentration at 2 h [1, 9]: 3.06 µM and 1080 ng/mL
concentration at 2 h [1, 10]: 2.39 µM and 846 ng/mL
concentration at 30 min ([1]; 100 mg/kg i.p., 30 min): 4.8 ± 0.612 µM
concentration at 60 min ([1]; 100 mg/kg i.p., 60 min): 3.91 ± 0.674 µM
concentration at 120 min ([1]; 100 mg/kg i.p., 120 min): 3.06 ± 0.578 µM
concentration at 30 min ([1]; intraperitoneal, 30 min): 1690 ± 216 ng/mL
concentration at 60 min ([1]; intraperitoneal, 60 min): 1520 ± 158 ng/mL
concentration at 120 min ([1]; intraperitoneal, 120 min): 1080 ± 202 ng/mL
Cmax ([1]; 100 mg/kg i.p.): 4.8 µM
half-life ([1]; 100 mg/kg i.p.): ~1.5 h
overt toxicity ([1]; 100 mg/kg i.p.): no overt toxicity
plasma concentration ([1]; 100 mg/kg i.p., 30 min): 4.8 µM
plasma concentration ([1]; 100 mg/kg i.p., 60 min): 3.9 µM
plasma concentration ([1]; 100 mg/kg i.p., 120 min): 3.0 µM
